Experimental data as given in patent US20230257396A1, “MACROCYCLES AND THEIR USE” (BLOSSOMHILL THERAPEUTICS, INC., priority 2020, published 2023).

Legend:
Experiment in all cases: KINOMEscan kinase binding assay (Eurofins/DiscoveRx), % Ctrl
Details in all cases: 1 μM
kinases [1] = target: T1, kinases (Homo sapiens, UniProt P00519)
T1 construct: purchased Eurofins/DiscoveRx; host or cells: E. coli BL21-derived host (T7 phage display) for most kinases; HEK-293 for the rest
Description: (§1) Kinase binding assays were performed at Eurofins/DiscoveRx using the general KINOMEscan Protocol (Fabian, M. A. et al., “A small molecule-kinase interaction map for clinical kinase inhibitors,” Nat. Biotechnol. 2005, 23(3):329-36). For most assays, kinase-tagged T7 phage strains were prepared in an E. coli host derived from the BL21 strain. E. coli were grown to log-phase and infected with T7 phage and incubated with shaking at 32° C. until lysis. The lysates were centrifuged and filtered to remove cell debris. The remaining kinases were produced in HEK-293 cells and subsequently tagged with DNA for qPCR detection. Streptavidin-coated magnetic beads were treated with biotinylated small molecule ligands for 30 minutes at room temperature to generate affinity resins for kinase assays. The liganded beads were blocked with excess biotin and washed with blocking buffer (SeaBlock (Pierce), 1% BSA, 0.05% Tween 20, 1 mM DTT) to remove unbound ligand and to reduce nonspecific binding. Binding reactions were assembled by combining kinases, liganded affinity beads, and test compounds in 1×binding buffer (20% SeaBlock, 0.17×PBS, 0.05% Tween 20, 6 mM DTT). All reactions were performed in polystyrene 96-well plates in a final volume of 0.135 mL. The assay plates were incubated at room temperature with shaking for 1 hour and the affinity beads were washed with washbuffer (1×PBS, 0.05% Tween 20). The beads were then re-suspended in elution buffer (1× PBS, 0.05% Tween 20, 0.5 μM non-biotinylated affinity ligand) and incubated at room temperature with shaking for 30 minutes. The kinase concentration in the eluates was measured by qPCR. Results for compounds tested in this assay at a given concentration are reported as “% Ctrl”, where lower numbers indicate stronger binding in the matrix.
(§2) (test compound signal-positive control signal)/(negative control signal-positive control signal) X100

kinases [2] = target: T2, kinases (Homo sapiens, UniProt P00519, F317I)
T2 construct: purchased Eurofins/DiscoveRx; host or cells: E. coli BL21-derived host (T7 phage display) for most kinases; HEK-293 for the rest
Description: as §1, §2

kinases [3] = target: T3, kinases (Homo sapiens, UniProt P00519, Q252H)
T3 construct: purchased Eurofins/DiscoveRx; host or cells: E. coli BL21-derived host (T7 phage display) for most kinases; HEK-293 for the rest
Description: as §1, §2

kinases [4] = target: T4, kinases (Homo sapiens, UniProt P00533, DEL746-750)
T4 construct: purchased Eurofins/DiscoveRx; host or cells: E. coli BL21-derived host (T7 phage display) for most kinases; HEK-293 for the rest
Description: as §1, §2

kinases [5] = target: T5, kinases (Homo sapiens, UniProt P00533, G719C)
T5 construct: purchased Eurofins/DiscoveRx; host or cells: E. coli BL21-derived host (T7 phage display) for most kinases; HEK-293 for the rest
Description: as §1, §2

kinases [6] = target: T6, kinases (Homo sapiens, UniProt P00533, L858R)
T6 construct: purchased Eurofins/DiscoveRx; host or cells: E. coli BL21-derived host (T7 phage display) for most kinases; HEK-293 for the rest
Description: as §1, §2

kinases [7] = target: T7, kinases (Homo sapiens, UniProt P00533, L858R/T790M)
T7 construct: purchased Eurofins/DiscoveRx; host or cells: E. coli BL21-derived host (T7 phage display) for most kinases; HEK-293 for the rest
Description: as §1, §2

kinases [8] = target: T8, kinases (Homo sapiens, UniProt P07949)
T8 construct: purchased Eurofins/DiscoveRx; host or cells: E. coli BL21-derived host (T7 phage display) for most kinases; HEK-293 for the rest
T8 sequence (P07949 29-1114): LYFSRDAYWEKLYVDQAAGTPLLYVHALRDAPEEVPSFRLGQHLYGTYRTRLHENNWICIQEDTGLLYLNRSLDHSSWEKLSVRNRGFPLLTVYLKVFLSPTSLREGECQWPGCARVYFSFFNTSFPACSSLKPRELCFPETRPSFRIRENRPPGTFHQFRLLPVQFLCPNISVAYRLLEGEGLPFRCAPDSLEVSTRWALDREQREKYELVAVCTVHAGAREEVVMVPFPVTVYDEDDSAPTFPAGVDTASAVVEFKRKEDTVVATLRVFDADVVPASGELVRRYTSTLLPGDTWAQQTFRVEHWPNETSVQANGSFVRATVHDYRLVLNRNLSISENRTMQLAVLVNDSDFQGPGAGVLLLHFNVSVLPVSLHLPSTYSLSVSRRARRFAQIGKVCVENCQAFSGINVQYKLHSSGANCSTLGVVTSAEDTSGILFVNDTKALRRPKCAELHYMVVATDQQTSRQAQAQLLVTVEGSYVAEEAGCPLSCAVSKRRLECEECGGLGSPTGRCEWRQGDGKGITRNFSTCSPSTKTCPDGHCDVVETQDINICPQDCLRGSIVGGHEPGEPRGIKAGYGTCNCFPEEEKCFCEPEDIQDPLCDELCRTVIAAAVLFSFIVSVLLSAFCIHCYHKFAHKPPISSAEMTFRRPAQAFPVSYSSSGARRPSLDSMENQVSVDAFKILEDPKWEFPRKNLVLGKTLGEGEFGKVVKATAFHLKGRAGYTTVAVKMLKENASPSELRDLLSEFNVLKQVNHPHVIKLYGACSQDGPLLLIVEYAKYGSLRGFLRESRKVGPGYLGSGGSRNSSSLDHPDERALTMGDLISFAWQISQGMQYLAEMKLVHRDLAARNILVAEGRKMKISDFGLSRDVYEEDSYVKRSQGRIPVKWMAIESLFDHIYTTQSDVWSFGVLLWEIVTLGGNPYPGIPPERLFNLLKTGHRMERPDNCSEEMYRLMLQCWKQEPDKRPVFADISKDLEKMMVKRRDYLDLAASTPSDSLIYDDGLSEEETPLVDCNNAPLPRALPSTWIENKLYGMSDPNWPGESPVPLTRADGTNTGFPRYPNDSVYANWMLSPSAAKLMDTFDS
Description: as §1, §2

kinases [9] = target: T9, kinases (Homo sapiens, UniProt P10721, D816V)
T9 construct: purchased Eurofins/DiscoveRx; host or cells: E. coli BL21-derived host (T7 phage display) for most kinases; HEK-293 for the rest
T9 sequence (P10721 26-976 D816V): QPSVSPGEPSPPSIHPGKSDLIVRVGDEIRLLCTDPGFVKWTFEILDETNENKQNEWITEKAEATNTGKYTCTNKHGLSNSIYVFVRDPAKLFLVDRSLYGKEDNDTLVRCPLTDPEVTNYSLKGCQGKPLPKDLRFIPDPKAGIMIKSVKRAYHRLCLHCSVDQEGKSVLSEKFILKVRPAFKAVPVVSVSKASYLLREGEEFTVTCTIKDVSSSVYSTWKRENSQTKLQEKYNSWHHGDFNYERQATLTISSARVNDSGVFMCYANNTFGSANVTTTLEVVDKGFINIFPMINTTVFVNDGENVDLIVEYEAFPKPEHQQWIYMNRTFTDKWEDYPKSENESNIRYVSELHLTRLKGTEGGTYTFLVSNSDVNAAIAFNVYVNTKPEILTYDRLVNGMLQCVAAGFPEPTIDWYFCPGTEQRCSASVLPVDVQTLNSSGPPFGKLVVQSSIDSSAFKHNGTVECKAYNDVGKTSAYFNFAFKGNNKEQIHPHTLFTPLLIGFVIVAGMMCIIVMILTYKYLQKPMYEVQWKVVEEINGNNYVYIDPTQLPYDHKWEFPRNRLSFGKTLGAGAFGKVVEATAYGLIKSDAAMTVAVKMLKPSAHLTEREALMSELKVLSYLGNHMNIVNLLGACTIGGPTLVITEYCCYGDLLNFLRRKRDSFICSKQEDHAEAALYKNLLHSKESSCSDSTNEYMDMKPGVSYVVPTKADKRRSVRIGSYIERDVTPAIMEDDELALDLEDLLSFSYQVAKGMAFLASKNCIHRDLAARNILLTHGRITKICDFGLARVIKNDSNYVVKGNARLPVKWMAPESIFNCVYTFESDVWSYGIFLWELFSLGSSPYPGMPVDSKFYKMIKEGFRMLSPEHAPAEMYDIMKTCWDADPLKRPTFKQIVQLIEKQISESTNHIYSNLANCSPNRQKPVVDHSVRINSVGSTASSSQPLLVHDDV
Description: as §1, §2

kinases [10] = target: T10, kinases (Homo sapiens, UniProt P10721, V559D/V654A)
T10 construct: purchased Eurofins/DiscoveRx; host or cells: E. coli BL21-derived host (T7 phage display) for most kinases; HEK-293 for the rest
T10 sequence (P10721 26-976 V559D/V654A): as the sequence (P10721 26-976 D816V) above, with V534D, V629A, V791D counted along it
Description: as §1, §2

kinases [11] = target: T11, kinases (Homo sapiens, UniProt P36888, D835V)
T11 construct: purchased Eurofins/DiscoveRx; host or cells: E. coli BL21-derived host (T7 phage display) for most kinases; HEK-293 for the rest
T11 sequence (P36888 27-993 D835V): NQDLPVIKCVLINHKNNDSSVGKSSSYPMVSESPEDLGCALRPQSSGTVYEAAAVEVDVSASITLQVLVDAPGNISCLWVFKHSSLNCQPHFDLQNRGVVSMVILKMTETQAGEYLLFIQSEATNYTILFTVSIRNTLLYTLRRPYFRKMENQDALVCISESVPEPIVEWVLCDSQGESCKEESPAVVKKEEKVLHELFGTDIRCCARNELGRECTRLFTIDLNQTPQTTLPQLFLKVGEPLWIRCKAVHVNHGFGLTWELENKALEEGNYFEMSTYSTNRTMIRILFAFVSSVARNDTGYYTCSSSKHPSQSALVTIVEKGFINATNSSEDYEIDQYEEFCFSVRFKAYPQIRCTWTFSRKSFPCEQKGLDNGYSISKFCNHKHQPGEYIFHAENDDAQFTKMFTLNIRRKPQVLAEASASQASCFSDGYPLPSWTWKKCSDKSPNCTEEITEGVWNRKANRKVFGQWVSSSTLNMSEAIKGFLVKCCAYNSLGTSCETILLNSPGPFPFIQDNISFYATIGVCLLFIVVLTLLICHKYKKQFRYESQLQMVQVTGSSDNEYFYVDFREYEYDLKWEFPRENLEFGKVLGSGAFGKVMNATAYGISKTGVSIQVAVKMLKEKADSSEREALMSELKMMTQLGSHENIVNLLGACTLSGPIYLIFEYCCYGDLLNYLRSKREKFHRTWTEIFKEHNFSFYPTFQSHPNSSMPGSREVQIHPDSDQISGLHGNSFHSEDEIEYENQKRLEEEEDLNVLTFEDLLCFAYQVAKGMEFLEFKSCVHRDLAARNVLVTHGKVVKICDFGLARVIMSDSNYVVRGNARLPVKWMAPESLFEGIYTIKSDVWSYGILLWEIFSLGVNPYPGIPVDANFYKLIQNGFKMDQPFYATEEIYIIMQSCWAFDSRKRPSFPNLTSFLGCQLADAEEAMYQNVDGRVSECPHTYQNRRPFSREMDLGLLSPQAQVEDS
Description: as §1, §2

[12] = target ABL1(F317I)-nonphosphorylated
[13] = target ABL1(F317I)-phosphorylated
[14] = target ABL1(Q252H)-nonphosphorylated
[15] = target ABL1(Q252H)-phosphorylated

Structure (SMILES)	% Ctrl, ABL1-nonphosphorylated (kinases [1]; target ABL1-nonphosphorylated) [% Ctrl]	% Ctrl, ABL1-phosphorylated (kinases [1]; target ABL1-phosphorylated) [% Ctrl]	% Ctrl, ABL1(F317I)-nonphosphorylated (kinases [2]; [12]) [% Ctrl]	% Ctrl, ABL1(F317I)-phosphorylated (kinases [2]; [13]) [% Ctrl]	% Ctrl, ABL1(Q252H)-nonphosphorylated (kinases [3]; [14]) [% Ctrl]	% Ctrl, ABL1(Q252H)-phosphorylated (kinases [3]; [15]) [% Ctrl]	% Ctrl, ABL1-nonphosphorylated (kinases [1]; ABL1-nonphosphorylated) [% Ctrl]	% Ctrl, ABL1-phosphorylated (kinases [1]; ABL1-phosphorylated) [% Ctrl]	% Ctrl, ABL1(F317I)-nonphosphorylated (kinases [2]; ABL1(F317I)-nonphosphorylated) [% Ctrl]	% Ctrl, ABL1(F317I)-phosphorylated (kinases [2]; ABL1(F317I)-phosphorylated) [% Ctrl]	% Ctrl, ABL1(Q252H)-nonphosphorylated (kinases [3]; ABL1(Q252H)-nonphosphorylated) [% Ctrl]	% Ctrl, ABL1(Q252H)-phosphorylated (kinases [3]; ABL1(Q252H)-phosphorylated) [% Ctrl]	% Ctrl, EGFR(E746-A750del) (kinases [4]; EGFR(E746-A750del)) [% Ctrl]	% Ctrl, EGFR(G719C) (kinases [5]; EGFR(G719C)) [% Ctrl]	% Ctrl, EGFR(L858R) (kinases [6]; EGFR(L858R)) [% Ctrl]	% Ctrl, EGFR(L858R, T790M) (kinases [7]; EGFR(L858R, T790M)) [% Ctrl]	% Ctrl, RET (kinases [8]; RET) [% Ctrl]	% Ctrl, KIT(D816V) (kinases [9]; KIT(D816V)) [% Ctrl]	% Ctrl, KIT(V559D, V654A) (kinases [10]; KIT(V559D, V654A)) [% Ctrl]	% Ctrl, FLT3(D835V) (kinases [11]; FLT3(D835V)) [% Ctrl]	other results
Cc1cc2c([nH]1)/C=C1\C(=O)Nc3ccc(cc31)CN(C)C(=O)COCCNC2=O [Ex.111, [17a(18)Z]-2,11-dimethyl-6,7,11,12-tetrahydro-1H-13,15-(ethanediylidene)dipyrrolo[3,2-f:3′,4′-i][1,4,14]oxadiazacyclohexadecine-4,10,17(5H,9H,16H)-trione]							71	59	89	100	75	57	92	73	78	97	94	76	62	1.5	
Cc1cc2c([nH]1)/C=C1\C(=O)Nc3ccc(cc31)-c1cnn(C)c1COCCN(C)C2=O [Ex. 124, [3a(4)Z]-6,9,14-trimethyl-10,11,13,14-tetrahydro-2H-1,17-(ethanediylidene)pyrazolo[4,3-m]dipyrrolo[3,2-f:3′,4′-i][1,4]oxazacyclopentadecine-3,8(5H,9H)-dione]							0	0	0	1.5	0	0	15	87	58	1.7	0	0.7	7.7	0	
CN1CCOc2cc3c(cc2Cl)NC(=O)/C3=C\c2[nH]ccc2C(=O)N(C)CC1 [Ex. 164, [16a(17)Z]-19-chloro-2,5,8-trimethyl-5,6,7,8,9,10-hexahydro-12,14-(ethanediylidene)dipyrrolo[3,2-i:3′,4′-l][1,4,7]oxadiazacyclopentadecine-4,16(1H,15H)-dione]	0.1	0.1	5.7	6.7	0.1	0															% Ctrl, EGFR(E746-A750del) (kinases [4]; target EGFR(E746-A750del)): 18 % Ctrl; % Ctrl, EGFR(G719C) (kinases [5]; target EGFR(G719C)): 82 % Ctrl; % Ctrl, EGFR(L858R) (kinases [6]; target EGFR(L858R)): 45 % Ctrl; % Ctrl, EGFR(L858R, T790M) (kinases [7]; target EGFR(L858R, T790M)): 80 % Ctrl; % Ctrl, RET (kinases [8]; target RET): 0 % Ctrl; % Ctrl, KIT(D816V) (kinases [9]; target KIT(D816V)): 3.3 % Ctrl; % Ctrl, KIT(V559D, V654A) (kinases [10]; target KIT(V559D, V654A)): 27 % Ctrl; % Ctrl, FLT3(D835V) (kinases [11]; target FLT3(D835V)): 1.1 % Ctrl

More lines, main results first:

% Ctrl, ABL1-nonphosphorylated (kinases [1]; target ABL1-nonphosphorylated) [% Ctrl]	% Ctrl, ABL1-phosphorylated (kinases [1]; target ABL1-phosphorylated) [% Ctrl]	% Ctrl, ABL1(F317I)-nonphosphorylated (kinases [2]; [12]) [% Ctrl]	% Ctrl, ABL1(F317I)-phosphorylated (kinases [2]; [13]) [% Ctrl]	% Ctrl, ABL1(Q252H)-nonphosphorylated (kinases [3]; [14]) [% Ctrl]	% Ctrl, ABL1(Q252H)-phosphorylated (kinases [3]; [15]) [% Ctrl]	% Ctrl, ABL1-nonphosphorylated (kinases [1]; ABL1-nonphosphorylated) [% Ctrl]	% Ctrl, ABL1-phosphorylated (kinases [1]; ABL1-phosphorylated) [% Ctrl]	% Ctrl, ABL1(F317I)-nonphosphorylated (kinases [2]; ABL1(F317I)-nonphosphorylated) [% Ctrl]	% Ctrl, ABL1(F317I)-phosphorylated (kinases [2]; ABL1(F317I)-phosphorylated) [% Ctrl]	% Ctrl, ABL1(Q252H)-nonphosphorylated (kinases [3]; ABL1(Q252H)-nonphosphorylated) [% Ctrl]	% Ctrl, ABL1(Q252H)-phosphorylated (kinases [3]; ABL1(Q252H)-phosphorylated) [% Ctrl]	% Ctrl, EGFR(E746-A750del) (kinases [4]; EGFR(E746-A750del)) [% Ctrl]	% Ctrl, EGFR(G719C) (kinases [5]; EGFR(G719C)) [% Ctrl]	% Ctrl, EGFR(L858R) (kinases [6]; EGFR(L858R)) [% Ctrl]	% Ctrl, EGFR(L858R, T790M) (kinases [7]; EGFR(L858R, T790M)) [% Ctrl]	% Ctrl, RET (kinases [8]; RET) [% Ctrl]	% Ctrl, KIT(D816V) (kinases [9]; KIT(D816V)) [% Ctrl]	% Ctrl, KIT(V559D, V654A) (kinases [10]; KIT(V559D, V654A)) [% Ctrl]	% Ctrl, FLT3(D835V) (kinases [11]; FLT3(D835V)) [% Ctrl]	Structure (SMILES)	other results
0.6	1.4	24	9.3	0.3	0.1															Cc1cc2c([nH]1)/C=C1\C(=O)Nc3cnc(cc31)-c1cnn(C)c1CN(C)CCN(C)C2=O [Ex. 172, [3a(4)Z]-6,9,12,14-tetramethyl-9,10,11,12,13,14-hexahydro-17,1-(azenometheno)pyrazolo[4,3-m]dipyrrolo[3,2-f:3′,4′-i][1,4]diazacyclopentadecine-3,8(2H,5H)-dione]	% Ctrl, EGFR(E746-A750del) (kinases [4]; target EGFR(E746-A750del)): 43 % Ctrl; % Ctrl, EGFR(G719C) (kinases [5]; target EGFR(G719C)): 100 % Ctrl; % Ctrl, EGFR(L858R) (kinases [6]; target EGFR(L858R)): 48 % Ctrl; % Ctrl, EGFR(L858R, T790M) (kinases [7]; target EGFR(L858R, T790M)): 3.3 % Ctrl; % Ctrl, RET (kinases [8]; target RET): 3.1 % Ctrl; % Ctrl, KIT(D816V) (kinases [9]; target KIT(D816V)): 0.8 % Ctrl; % Ctrl, KIT(V559D, V654A) (kinases [10]; target KIT(V559D, V654A)): 40 % Ctrl; % Ctrl, FLT3(D835V) (kinases [11]; target FLT3(D835V)): 0.5 % Ctrl
						90	93	100	100	97	100	100	71	9	100	96	100	100	100	Cc1cc2c([nH]1)/C=C1\C(=O)Nc3cnc(nc31)N(C)CCCOCCN(C)C2=O [Ex.71, [17a(18)Z]-2,5,12-trimethyl-6,7,9,10,11,12-hexahydro-1H-13,15-(azenometheno)dipyrrolo[3,2-f:3′,4′-i][1,4,11,13]oxatriazacyclohexadecine-4,17(5H,16H)-dione]	
